From patent US6632978B1, “Transgenic animals for studying regulation of genes” (Novartis AG, priority 1999, dated 2003)

Tests used:
[1] = tested on: SEAP expression; experiment: Effect of inhibitory compounds on TNF-induced SEAP expression; type: in vivo, mouse; conditions: for inhibition of marker enzyme (SEAP) expression: SEAP-1 animals (Example 2), 1 mg/kg i.v.; for modification of SEAP expression: SEAP-2 animals
Description: Test 5: Effect of Inhibitory Compounds on SEAP Expression.
Clasto-lactacystine-β-lactone, a commercially available proteasome inhibitor is dissolved in DMSO (10 μl/100 μg) and further diluted with 90 μl Peg300. This mixture is further diluted 1:10 in saline and injected i.v. to animals of Example 2 at a dose of 1 mg/kg. Ten to 15 min later TNF is administered i.p. to compound-treated or untreated animals of Example 2. Blood samples are taken from the animals at baseline, 6 hours and 24 hours and SEAP levels analyzed.

[2] = tested on: SEAP expression under the control of the E-selectin regulatory sequence; experiment: LPS and cytokine induction of SEAP expression in heterozygous mice; type: in vivo, mouse; conditions: either line (SEAP-1, SEAP-2)
Description: Test 1: LPS and Cytokine Induction of SEAP Expression in Heterozygous Mice.
Heterozygous mice of Example 1 and Example 2 are injected with LPS (Sigma, Serotype 0:111B4 Cat. L4130) at a dose of 25 μg per mouse. Murine recombinant TNFα (R&D Systems, Cat No. 410-MT) is diluted in sterile saline and administered at a dose of 500 ng/mouse. Administration is intravenously, e.g., into the tail vein, subcutaneously or intraperitoneally.
Blood for analysis is taken from a superficial vein of the mouse into heparinized glass hematocrit capillaries. The blood is centrifuged in a table-top Eppendorff centrifuge at maximal speed for 5 min to prepare plasma.
A standard curve is created with human placental alkaline phosphatase (PAP) (Sigma Cat. P-3895). A stock solution of 2 mg/ml dissolved in buffer (Tris/HCl 50 mM pH 7.4; NaCl 150 mM; BSA 1%) is stored at −80° C. in aliquots. The standard curve is diluted in mouse plasma containing Heparin. The range of the standard curve is between 0.5 and 50000 ng/mL PAP.
For the enzyme assay the Tropix Kit (Tropix, Cat. No BP300) is used.
The results are plotted in FIGS. 3 and 4. […] The maximal levels of plasma SEAP are reached at 6 hours post-stimulation in animals of Example 2, the maximum reached in animals of Example 1 is not seen until 24 hours post stimulation. SEAP-2 mice express about 1000-fold more marker enzyme than SEAourP-1 animals. […]

Molecule	inhibition of marker enzyme (SEAP) expression ([1]; 6 hours after TNF)	inhibition of marker enzyme (SEAP) expression ([1]; 24 hours after TNF)	modification of SEAP expression ([1]; 6 hours after TNF)	modification of SEAP expression ([1]; 24 hours after TNF)	effect on SEAP induction [2]
CC(C)[C@H](O)[C@@]12NC(=O)[C@H](C)[C@@H]1OC2=O [clasto-lactacystine-β-lactone, Clasto-lactacystine-β-lactone]	significant inhibition	no effect	does not modify	does not modify	–
IFNg: IFNg, known not to induce E-selectin in vitro; control cytokine (protein, UniProt P01579 24-161, looked up) Interferon gamma: QDPYVKEAENLKKYFNAGHSDVADNGTLFLGILKNWKEESDRKIMQSQIVSFYFKLFKNFKDDQSIQKSVETIKEDMNVKFFNSNKKKRDDFEKLTNYSVTDLNVQRKAIHELIQVMAELSPAAKTGKRKRSQMLFRG	–	–	–	–	no effect
